Drawing on ChEMBL document CHEMBL3580539, “Discovery of small molecule inhibitors targeting the SUMOSIM interaction using a protein interface consensus approach” (Medchemcomm, 2014), this text covers Kd for 3 compounds.

Molecules are shown by their SMILES.

The target of this assay is Small ubiquitin-related modifier 2/3 (SUMO 2/3) (Homo sapiens, UniProt P61956+P55854). As to the kind of experiment: Binding affinity to His-tagged SUMO2/3 (unknown origin) expressed in Escherichia coli BL21 (DE3) measured over 120 secs by SPR analysis. On the technique in general: In SPR one partner is held on a chip, and binding of the other changes the refractive index at the surface.
`C=CCNc1nc(NCc2ccccn2)nc2ccccc12` showed a dissociation constant (Kd) of 29 µM. In turn, `COCC(C)n1c(NCc2ccccn2)nc2ccccc2c1=O` (stereo not drawn) yielded a dissociation constant Kd of 59 µM. This Kd is about 2-fold higher than that of the compound before. As for `CC(NS(=O)(=O)c1ccc(Cl)c(Cl)c1)C(=O)NNC(=O)c1ccccc1O` (stereo not drawn), the figure is 1.9 µM.

What is called Kd is the equilibrium constant for the complex coming apart.
